Experimental data reported in ChEMBL document CHEMBL1201862, “PubChem BioAssay data set” (2004).
Calls of active or inactive are those of the source.

Columns and labels:
Type in all cases: functional
[1] = target: Melanin-concentrating hormone receptor 1 (Homo sapiens, UniProt Q99705); assay: Late-stage fluorescence-based counterscreen for antagonists of the G-protein coupled receptor 7 (GPR7): cell-based dose response assay to identify antagonists of the melanin-concentrating hormone receptor 1 (MCHR1) Set 6.
Sequence of Melanin-concentrating hormone receptor 1 (Q99705 whole entry): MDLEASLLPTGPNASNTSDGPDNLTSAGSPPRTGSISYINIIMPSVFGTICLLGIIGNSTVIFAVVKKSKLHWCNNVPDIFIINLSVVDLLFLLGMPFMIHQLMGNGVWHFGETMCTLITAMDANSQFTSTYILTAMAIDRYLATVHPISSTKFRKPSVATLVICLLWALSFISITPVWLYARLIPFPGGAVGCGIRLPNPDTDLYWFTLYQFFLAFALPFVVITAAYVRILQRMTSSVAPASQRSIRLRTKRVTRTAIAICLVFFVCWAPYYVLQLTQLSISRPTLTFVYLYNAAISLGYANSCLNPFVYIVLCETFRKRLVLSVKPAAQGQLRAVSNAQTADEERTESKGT

[2] = target: T1, Neuropeptides B/W receptor type 1 (Homo sapiens, UniProt P48145); assay: human NPBW1 receptor blockade, IC50 – cell-based, fluorescence, dose response, set 6, late-stage follow-up (AID 588583)
T1 sequence (P48145 whole entry): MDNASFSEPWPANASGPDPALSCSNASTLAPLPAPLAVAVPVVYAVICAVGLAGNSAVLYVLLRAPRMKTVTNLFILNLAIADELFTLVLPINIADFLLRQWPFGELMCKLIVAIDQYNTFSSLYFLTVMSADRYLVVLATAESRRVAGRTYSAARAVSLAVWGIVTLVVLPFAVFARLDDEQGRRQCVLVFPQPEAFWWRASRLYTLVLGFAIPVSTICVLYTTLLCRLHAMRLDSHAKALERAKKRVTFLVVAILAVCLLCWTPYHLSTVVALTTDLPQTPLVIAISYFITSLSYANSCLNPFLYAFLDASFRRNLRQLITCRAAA

[3] = Luminescence Cell-Based Dose Retest to Confirm Inhibitors of Cancer Stem Cells. [Related pubchem assays (depositor defined):AID2717, AID2721]; settings: Homo sapiens
[4] = target: T2, High affinity choline transporter 1 (Homo sapiens, UniProt Q9GZV3); assay: human choline transporter blockers, potency – cell-based, 5-point CRC, membrane potential dye, dose response (AID 504840)
T2 sequence (Q9GZV3 whole entry): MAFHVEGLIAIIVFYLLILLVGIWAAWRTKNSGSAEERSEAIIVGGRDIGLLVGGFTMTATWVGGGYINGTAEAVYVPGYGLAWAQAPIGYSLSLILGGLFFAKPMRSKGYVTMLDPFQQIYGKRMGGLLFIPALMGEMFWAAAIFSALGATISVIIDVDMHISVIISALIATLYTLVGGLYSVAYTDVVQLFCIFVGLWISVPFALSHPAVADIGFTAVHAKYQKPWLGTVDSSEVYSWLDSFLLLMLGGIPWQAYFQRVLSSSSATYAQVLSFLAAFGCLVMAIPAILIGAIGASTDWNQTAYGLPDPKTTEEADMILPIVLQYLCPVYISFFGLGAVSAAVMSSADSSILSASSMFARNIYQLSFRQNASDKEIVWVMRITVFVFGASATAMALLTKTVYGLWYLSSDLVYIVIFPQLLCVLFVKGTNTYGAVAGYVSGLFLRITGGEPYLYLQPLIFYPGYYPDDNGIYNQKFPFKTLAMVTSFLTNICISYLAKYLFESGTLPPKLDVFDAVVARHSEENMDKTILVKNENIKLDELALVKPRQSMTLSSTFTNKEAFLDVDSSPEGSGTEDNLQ

Vero = assay: viability of Vero cells under compound – cytotoxicity control for flavivirus capping enzyme inhibitors (AID 588742); settings: Chlorocebus sabaeus
[5] = target: T2, High affinity choline transporter 1; assay: human choline transporter blockers, potency – cell-based, 10-point CRC, membrane potential dye, dose response (AID 588401);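 further: membrane potential dye fluorescence of choline-evoked depolarization via CHT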
Genome polyprotein = Genome polyprotein (dengue virus type 2, UniProt P29990); assay: flavivirus cap methylation enzyme inhibition – biochemical, confirmation dose response, primary screen (AID 588689)
Sequence of Genome polyprotein (P29990 2492-3391 limits assumed): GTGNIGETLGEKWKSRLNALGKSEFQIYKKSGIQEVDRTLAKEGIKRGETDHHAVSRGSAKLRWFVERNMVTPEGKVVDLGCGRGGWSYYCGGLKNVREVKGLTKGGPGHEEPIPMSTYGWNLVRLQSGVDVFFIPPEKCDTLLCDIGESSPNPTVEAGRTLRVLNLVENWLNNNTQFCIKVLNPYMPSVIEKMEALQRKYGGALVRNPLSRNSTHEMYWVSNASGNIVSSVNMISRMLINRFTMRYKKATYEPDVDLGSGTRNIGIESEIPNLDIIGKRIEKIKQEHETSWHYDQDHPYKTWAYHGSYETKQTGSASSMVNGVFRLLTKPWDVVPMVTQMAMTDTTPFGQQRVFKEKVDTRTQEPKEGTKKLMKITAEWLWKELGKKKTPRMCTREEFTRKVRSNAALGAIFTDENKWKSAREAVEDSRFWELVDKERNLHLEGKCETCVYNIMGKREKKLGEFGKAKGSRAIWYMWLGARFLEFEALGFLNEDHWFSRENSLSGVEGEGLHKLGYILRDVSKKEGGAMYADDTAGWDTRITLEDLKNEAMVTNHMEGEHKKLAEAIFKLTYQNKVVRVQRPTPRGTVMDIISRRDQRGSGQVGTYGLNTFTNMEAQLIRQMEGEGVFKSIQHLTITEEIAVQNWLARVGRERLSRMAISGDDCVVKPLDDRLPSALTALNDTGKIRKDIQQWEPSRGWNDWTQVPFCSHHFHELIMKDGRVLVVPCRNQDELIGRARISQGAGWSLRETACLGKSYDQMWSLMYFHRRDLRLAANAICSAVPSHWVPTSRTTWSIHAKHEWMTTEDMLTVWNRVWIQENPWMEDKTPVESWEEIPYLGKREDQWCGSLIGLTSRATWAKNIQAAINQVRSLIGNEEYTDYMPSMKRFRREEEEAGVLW
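Wherever AC50 is given: cells exposed to compound for roughly 70 hours or longer before luminescence read.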

| IC50 [1] | IC50 [2] | Structure (SMILES) | AC50 [3] | IC50 [4] | CC50 (Vero) | IC50 [5] | IC50 (Genome polyprotein) |
| --- | --- | --- | --- | --- | --- | --- | --- |
| 0.173 µM (active) | 0.173 µM (active) | N#CC(c1cccc(F)c1)c1c(Cl)cnn(Cc2cccc3ccccc23)c1=O (configuration not stated) |  |  |  |  |  |
|  |  | COc1ccc(C)cc1NC(=O)c1ccccc1NS(=O)(=O)c1ccc(Cl)s1 | 5.21 µM (active) | 5.82 µM (active) | 22.6 µM (active) | 1.75 µM (active) | 49.3 µM (active) |
